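Interpolation was linear, between the two tested concentrations surrounding the appropriate level; five concentrations were tested over 48 hours in 96-well plates. The concentration for 50% growth inhibition is given as GI50. TGI: total growth inhibition.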
Assays:
Test in all cases: NCI anticancer screen, dose series, 48 h
[1] = test system: PC-3 prostate
[2] = test system: MDA-MB-231 breast
[3] = test system: KM12 colon
[4] = test system: OVCAR-8 ovarian
[5] = test system: HT29 colon
[6] = test system: LOX IMVI melanoma
[7] = test system: DU-145 prostate
[8] = test system: HL-60(TB) leukemia
[9] = test system: HCC-2998 colon
[10] = test system: HCT-15 colon
[11] = test system: SF-539 CNS
[12] = test system: NCI-H460 lung
[13] = test system: HOP-92 NSCLC
[14] = test system: OVCAR-4 ovarian
[15] = test system: HCT-116 colon
[16] = test system: CAKI-1 renal
[17] = test system: BT-549 breast
[18] = test system: NCI-H226 lung
[19] = test system: CCRF-CEM leukemia
[20] = test system: SNB-75 CNS
[21] = test system: UACC-62 melanoma
[22] = test system: 786-0 renal
[23] = test system: MDA-MB-435
[24] = test system: SF-295 CNS
[25] = test system: MCF7 breast
[26] = test system: OVCAR-5 ovarian
[27] = test system: SK-MEL-2 melanoma
[28] = test system: SK-MEL-28 melanoma
[29] = test system: MALME-3M melanoma
[30] = test system: ACHN renal
[31] = test system: IGROV1 ovarian
[32] = test system: NCI-H522 lung
[33] = test system: MOLT-4 leukemia
[34] = test system: A498 renal
[35] = test system: NCI/ADR-RES ovarian
[36] = test system: HS 578T breast
[37] = test system: OVCAR-3 ovarian
[38] = test system: HOP-62 NSCLC
[39] = test system: SN12C renal
[40] = test system: UACC-257 melanoma
[41] = test system: EKVX NSCLC
[42] = test system: A549 NSCLC
[43] = test system: UO-31 renal
[44] = test system: RXF 393 renal
[45] = test system: T-47D breast
[46] = test system: TK-10 renal
[47] = test system: SK-OV-3 ovarian
[48] = test system: SF-268 CNS
[49] = test system: SW-620 colon
[50] = test system: SK-MEL-5 melanoma
[51] = test system: COLO 205 colon
[52] = test system: SNB-19 CNS
[53] = test system: U251 CNS
[54] = test system: RPMI-8226 leukemia
[55] = test system: K-562 leukemia
[56] = test system: SR leukemia
[57] = test system: NCI-H23 lung

Structure (SMILES): Nc1ncnc2c1ncn2Cc1ccc(C23CC4CC(CC(C4)C2)C3)c(O)c1
- GI50 [1]: 8.36 µM
- TGI [1]: 96.3 µM
- GI50 [2]: 13.6 µM
- TGI [2]: 63.1 µM
- GI50 [3]: 13.7 µM
- TGI [3]: > 100 µM
- GI50 [4]: 17.5 µM
- TGI [4]: > 100 µM
- GI50 [5]: 15.1 µM
- TGI [5]: > 100 µM
- GI50 [6]: 24.6 µM
- TGI [6]: > 100 µM
- GI50 [7]: 27.3 µM
- TGI [7]: > 100 µM
- GI50 [8]: 5.06 µM
- TGI [8]: > 100 µM
- GI50 [9]: 12.4 µM
- TGI [9]: 82.1 µM
- GI50 [10]: 58.6 µM
- TGI [10]: > 100 µM
- GI50 [11]: 23.4 µM
- TGI [11]: 75.1 µM
- GI50 [12]: 11.8 µM
- TGI [12]: > 100 µM
- GI50 [13]: 16.4 µM
- TGI [13]: 37.5 µM
- GI50 [14]: 2.71 µM
- TGI [14]: 8.66 µM
- GI50 [15]: 8.91 µM
- TGI [15]: > 100 µM
- GI50 [16]: 8.14 µM
- TGI [16]: 37.5 µM
- GI50 [17]: 23.5 µM
- TGI [17]: > 100 µM
- GI50 [18]: > 100 µM
- TGI [18]: > 100 µM
- GI50 [19]: 3.97 µM
- TGI [19]: > 100 µM
- GI50 [20]: 13.4 µM
- TGI [20]: 40 µM
- GI50 [21]: 31.8 µM
- TGI [21]: > 100 µM
- GI50 [22]: 25.6 µM
- TGI [22]: > 100 µM
- GI50 [23]: 15 µM
- TGI [23]: > 100 µM
- GI50 [24]: 18.3 µM
- TGI [24]: > 100 µM
- GI50 [25]: 17.4 µM
- TGI [25]: > 100 µM
- GI50 [26]: > 100 µM
- TGI [26]: > 100 µM
- GI50 [27]: > 100 µM
- TGI [27]: > 100 µM
- GI50 [28]: 18.9 µM
- TGI [28]: > 100 µM
- GI50 [29]: 12.6 µM
- TGI [29]: > 100 µM
- GI50 [30]: 15.6 µM
- TGI [30]: > 100 µM
- GI50 [31]: 27.2 µM
- TGI [31]: > 100 µM
- GI50 [32]: 25.6 µM
- TGI [32]: > 100 µM
- GI50 [33]: 6.72 µM
- TGI [33]: > 100 µM
- GI50 [34]: 15.8 µM
- TGI [34]: 49.8 µM
- GI50 [35]: > 100 µM
- TGI [35]: > 100 µM
- GI50 [36]: 10.7 µM
- TGI [36]: 69.7 µM
- GI50 [37]: 17.2 µM
- TGI [37]: > 100 µM
- GI50 [38]: 9.06 µM
- TGI [38]: 34.6 µM
- GI50 [39]: 36.9 µM
- TGI [39]: > 100 µM
- GI50 [40]: 3.39 µM
- TGI [40]: 61.2 µM
- GI50 [41]: 33.4 µM
- TGI [41]: > 100 µM
- GI50 [42]: 6.52 µM
- TGI [42]: 77.4 µM
- GI50 [43]: 90 µM
- TGI [43]: > 100 µM
- GI50 [44]: 8.06 µM
- TGI [44]: 39.7 µM
- GI50 [45]: 58.7 µM
- TGI [45]: > 100 µM
- GI50 [46]: 7.24 µM
- TGI [46]: 50.2 µM
- GI50 [47]: 36.3 µM
- TGI [47]: > 100 µM
- GI50 [48]: 21.1 µM
- TGI [48]: > 100 µM
- GI50 [49]: 48.7 µM
- TGI [49]: > 100 µM
- GI50 [50]: 4.02 µM
- TGI [50]: 88.2 µM
- GI50 [51]: 29.1 µM
- TGI [51]: > 100 µM
- GI50 [52]: 30.3 µM
- TGI [52]: > 100 µM
- GI50 [53]: 14.8 µM
- TGI [53]: 32.6 µM

Structure (SMILES): COc1ccc(NC(=O)C2=C(SC)C(=O)N=C2N)cc1
- TGI [1]: > 100 µM
- TGI [2]: > 100 µM
- TGI [54]: > 100 µM
- TGI [3]: > 100 µM
- TGI [4]: > 100 µM
- TGI [5]: > 100 µM
- TGI [6]: > 100 µM
- TGI [55]: > 100 µM
- TGI [7]: > 100 µM
- TGI [8]: > 100 µM
- TGI [9]: > 100 µM
- TGI [10]: > 100 µM
- TGI [12]: > 100 µM
- TGI [13]: > 100 µM
- TGI [14]: > 100 µM
- TGI [15]: > 100 µM
- TGI [16]: > 100 µM
- TGI [17]: > 100 µM
- TGI [18]: > 100 µM
- TGI [19]: > 100 µM
- TGI [20]: > 100 µM
- TGI [21]: > 100 µM
- TGI [22]: > 100 µM
- TGI [23]: > 100 µM
- TGI [24]: > 100 µM
- TGI [27]: > 100 µM
- TGI [28]: > 100 µM
- TGI [30]: > 100 µM
- TGI [56]: > 100 µM
- TGI [31]: > 100 µM
- TGI [33]: > 100 µM
- TGI [34]: > 100 µM
- TGI [35]: > 100 µM
- TGI [36]: > 100 µM
- TGI [38]: > 100 µM
- TGI [40]: > 100 µM
- TGI [41]: > 100 µM
- TGI [43]: > 100 µM
- TGI [44]: > 100 µM
- TGI [45]: > 100 µM
- TGI [46]: > 100 µM
- TGI [47]: > 100 µM
- TGI [48]: > 100 µM
- TGI [49]: > 100 µM
- TGI [50]: > 100 µM
- TGI [51]: > 100 µM
- TGI [52]: > 100 µM
- TGI [53]: > 100 µM
- TGI [57]: > 100 µM

Structure (SMILES): CC(C)(C)c1cc(C(=O)Nc2cc3ccccc3cc2C(=O)NCCN)cc(C(C)(C)C)c1
- GI50 [7]: 0.374 µM
- TGI [7]: 1.29 µM
- GI50 [13]: 0.146 µM
- TGI [13]: 0.396 µM
- GI50 [14]: 1.24 µM
- TGI [14]: 2.7 µM
- GI50 [16]: 1.13 µM
- TGI [16]: 2.44 µM
- GI50 [36]: 1.65 µM
- TGI [36]: 4.57 µM
- GI50 [40]: 2.35 µM
- TGI [40]: 4.98 µM
- GI50 [50]: 1.65 µM
- TGI [50]: 3.17 µM

Reference: PubChem BioAssay (NCI)
